Measured values: publication PMC9848300, “Discovery of novel enasidenib analogues targeting inhibition of mutant isocitrate dehydrogenase 2 as antileukaemic agents” (Journal of Enzyme Inhibition and Medicinal Chemistry, 2023)

Key:
SR = assay: NCI 60 antitumor screening (single dose / five doses); assay type: cell-based; settings: Homo sapiens; SR (leukaemia), single dose 10 μM; read-out: Growth inhibition percentage (GI %)
SW-620 = assay: as above; assay type: cell-based, human; settings: Homo sapiens; SW-620 (colon cancer), single dose 10 μM; read-out: Growth inhibition percentage (GI %)
HOP-62 = assay: NCI 60 antitumor screening (single dose); assay type: cell-based; settings: Homo sapiens; HOP-62 (non-small cell lung cancer), single dose 10 μM; read-out: Growth inhibition percentage (GI %)
Method in brief: (§1)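 The panel mean likewise comes from single-dose (10 μM) NCI 60-line testing, with inhibition expressed as 100 − G%.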

NCI-H522 = assay: NCI 60 antitumor screening (single dose); assay type: cell-based; settings: Homo sapiens; NCI-H522 (non-small cell lung cancer), single dose 10 μM; read-out: Growth inhibition percentage (GI %)
Method in brief: as §1

M14 = assay: NCI 60 antitumor screening (single dose); assay type: cell-based; settings: Homo sapiens; M14 (melanoma), single dose 10 μM; read-out: Growth inhibition percentage (GI %)
Method in brief: (§2)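 Compounds were tested at a single 10 μM dose against the NCI 60-cell-line panel (nine tumour types), in triplicate. Growth was recorded as percent growth (G%) of treated cells, and growth inhibition was taken as GI% = 100 − G%.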

NCI-H23 = assay: NCI 60 antitumor screening (single dose); assay type: cell-based; settings: Homo sapiens; NCI-H23 (non-small cell lung cancer), single dose 10 μM; read-out: Growth inhibition percentage (GI %)
Method in brief: as §1

SNB-19 = assay: NCI 60 antitumor screening (single dose); assay type: cell-based; settings: Homo sapiens; SNB-19 (CNS cancer), single dose 10 μM; read-out: Growth inhibition percentage (GI %)
Method in brief: as §2

OVCAR-3 = assay: NCI 60 antitumor screening (single dose); assay type: cell-based; settings: Homo sapiens; OVCAR-3 (ovarian cancer), single dose 10 μM; read-out: Growth inhibition percentage (GI %)
Method in brief: as §2

NCI-H460 = assay: NCI 60 antitumor screening (single dose); assay type: cell-based; settings: Homo sapiens; NCI-H460 (non-small cell lung cancer), single dose 10 μM; read-out: Growth inhibition percentage (GI %)
Method in brief: as §1

OVCAR-5 = assay: NCI 60 antitumor screening (single dose); assay type: cell-based; settings: Homo sapiens; OVCAR-5 (ovarian cancer), single dose 10 μM; read-out: Growth inhibition percentage (GI %)
Method in brief: as §1

A549/ATCC = assay: NCI 60 antitumor screening (single dose); assay type: cell-based; settings: Homo sapiens; A549/ATCC (non-small cell lung cancer), single dose 10 μM; read-out: Growth inhibition percentage (GI %)
Method in brief: as §2

OVCAR-4 = assay: NCI 60 antitumor screening (single dose); assay type: cell-based; settings: Homo sapiens; OVCAR-4 (ovarian cancer), single dose 10 μM; read-out: Growth inhibition percentage (GI %)
Method in brief: as §2

KM 12 = assay: NCI 60 antitumor screening (single dose); assay type: cell-based; settings: Homo sapiens, KM12; KM 12 (colon cancer), single dose 10 μM; read-out: Growth inhibition percentage (GI %)
Method in brief: as §2

CAKI-1 = assay: NCI 60 antitumor screening (single dose); assay type: cell-based; settings: Homo sapiens; CAKI-1 (renal cancer), single dose 10 μM; read-out: Growth inhibition percentage (GI %)
Method in brief: as §2

TK-10 = assay: NCI 60 antitumor screening (single dose); assay type: cell-based; settings: Homo sapiens; TK-10 (renal cancer), single dose 10 μM; read-out: Growth inhibition percentage (GI %)
Method in brief: as §2

NCI-H226 = assay: NCI 60 antitumor screening (single dose); assay type: cell-based; settings: Homo sapiens; NCI-H226 (non-small cell lung cancer), single dose 10 μM; read-out: Growth inhibition percentage (GI %)
Method in brief: as §2

OVCAR-8 = assay: NCI 60 antitumor screening (single dose); assay type: cell-based; settings: Homo sapiens; OVCAR-8 (ovarian cancer), single dose 10 μM; read-out: Growth inhibition percentage (GI %)
Method in brief: as §2

HCC-2998 = assay: NCI 60 antitumor screening (single dose); assay type: cell-based; settings: Homo sapiens; HCC-2998 (colon cancer), single dose 10 μM; read-out: Growth inhibition percentage (GI %)
Method in brief: as §1

NCI-H322M = assay: NCI 60 antitumor screening (single dose); assay type: cell-based; settings: Homo sapiens; NCI-H322M (non-small cell lung cancer), single dose 10 μM; read-out: Growth inhibition percentage (GI %)
Method in brief: as §2

PC-3 = assay: NCI 60 antitumor screening (single dose); assay type: cell-based; settings: Homo sapiens; PC-3 (prostate cancer), single dose 10 μM; read-out: Growth inhibition percentage (GI %)
Method in brief: as §2

SK-OV-3 = assay: NCI 60 antitumor screening (single dose); assay type: cell-based; settings: Homo sapiens; SK-OV-3 (ovarian cancer), single dose 10 μM; read-out: Growth inhibition percentage (GI %)
Method in brief: as §1

U251 = assay: NCI 60 antitumor screening (single dose); assay type: cell-based; settings: Homo sapiens, U-251; U251 (CNS cancer), single dose 10 μM; read-out: Growth inhibition percentage (GI %)
Method in brief: as §1

HS 578T = assay: NCI 60 antitumor screening (single dose); assay type: cell-based; settings: Homo sapiens; HS 578T (breast cancer), single dose 10 μM; read-out: Growth inhibition percentage (GI %)
Method in brief: as §2

RPMI-8226 = assay: NCI 60 antitumor screening (single dose / five doses); assay type: cell-based; settings: Homo sapiens; RPMI-8226 (leukaemia), single dose 10 μM; read-out: Growth inhibition percentage (GI %)
NCI/ADR-RES = assay: as above; assay type: cell-based; settings: Homo sapiens; NCI/ADR-RES (ovarian cancer), single dose 10 μM; read-out: Growth inhibition percentage (GI %)
EKVX = assay: as above; assay type: cell-based; settings: Homo sapiens; EKVX (non-small cell lung cancer), single dose 10 μM; read-out: Growth inhibition percentage (GI %)
MALME-3M = assay: as above; assay type: cell-based; settings: Homo sapiens; MALME-3M (melanoma), single dose 10 μM; read-out: Growth inhibition percentage (GI %)

Compound | inhibition at 10 µM (SR) [%] | inhibition at 10 µM (SW-620) [%] | inhibition at 10 µM (HOP-62) [%] | inhibition at 10 µM (NCI-H522) [%] | inhibition at 10 µM (M14) [%] | inhibition at 10 µM (NCI-H23) [%] | inhibition at 10 µM (SNB-19) [%] | inhibition at 10 µM (OVCAR-3) [%] | inhibition at 10 µM (NCI-H460) [%] | inhibition at 10 µM (OVCAR-5) [%] | inhibition at 10 µM (A549/ATCC) [%] | inhibition at 10 µM (OVCAR-4) [%] | inhibition at 10 µM (KM 12) [%] | inhibition at 10 µM (CAKI-1) [%] | inhibition at 10 µM (TK-10) [%] | inhibition at 10 µM (NCI-H226) [%] | inhibition at 10 µM (OVCAR-8) [%] | inhibition at 10 µM (HCC-2998) [%] | inhibition at 10 µM (NCI-H322M) [%] | inhibition at 10 µM (PC-3) [%] | other results
C(=N\Nc1nc(N/N=C/c2ccc3c(c2)OCO3)nc(N2CCOCC2)n1)/c1ccc2c(c1)OCO2 [compound 6k, 2,4-Bis[(E)-2-(2H-1,3-Benzodioxol-5-ylmethylidene)hydrazin-1-yl]-6-(morpholin-4-yl)-1,3,5-triazine] | 85 | 29 | 13.6 | 12.5 | 5.09 | 17 | 5.57 | 6.73 | 12.2 | -1.78 | 17.7 | 8.16 | 17.4 | 21.1 | -3.24 | 22 | 26 | 8.26 | 11.8 | 30.1 | inhibition at 10 µM (SK-OV-3): -11.8%; inhibition at 10 µM (U251): 24.1%; inhibition at 10 µM (HS 578T): 16.7%; inhibition at 10 µM (RPMI-8226): 40.3%; inhibition at 10 µM (NCI/ADR-RES): 23.3%; inhibition at 10 µM (EKVX): 4.47%; inhibition at 10 µM (MALME-3M): -3.77%
Fc1cccc(Cl)c1/C=N/Nc1nc(N/N=C/c2c(F)cccc2Cl)nc(N2CCOCC2)n1 [compound 6l, 2,4-Bis[(E)-2-[(2-Chloro-6-fluorophenyl)methylidene]hydrazin-1-yl]-6-(morpholin-4-yl)-1,3,5-triazine] | 27.8 | 9.73 | 6.23 | 14.4 | 27.8 | 27.2 | 12.9 | 22.9 | 23.1 | -12.4 | 21 | 32.8 | 18.9 | 17.5 | -16.5 | 20.4 | 15.5 | 5.25 | 16.2 | 19.3 | inhibition at 10 µM (SK-OV-3): 7.59%; inhibition at 10 µM (U251): 11.8%; inhibition at 10 µM (HS 578T): 5%; inhibition at 10 µM (RPMI-8226): 41.1%; inhibition at 10 µM (NCI/ADR-RES): 16.8%; inhibition at 10 µM (EKVX): 45.5%; inhibition at 10 µM (MALME-3M): 16%
Oc1ccccc1/C=N/Nc1nc(N/N=C/c2ccccc2O)nc(N2CCCCC2)n1 [compound 7a, 2-[(1e)-(2-{4-[(E)-2-[(2-Hydroxyphenyl)methylidene]hydrazin-1-yl]-6-(piperidin-1-yl)-1,3,5-triazin-2-yl}hydrazin-1-ylidene)methyl] phenol] | 60.2 | 32.2 | 44.2 | 52.5 | 53.6 | 44.2 | 44 | 80.8 | 60.5 | 28.4 | 52.2 | 70.9 | 52.5 | 24.5 | 2.29 | 18.2 | 50.4 | 60.4 | 41.1 | 55.2 | inhibition at 10 µM (SK-OV-3): 12%; inhibition at 10 µM (U251): 49.6%; inhibition at 10 µM (HS 578T): 23.4%; inhibition at 10 µM (RPMI-8226): 57.4%; inhibition at 10 µM (NCI/ADR-RES): 81%; inhibition at 10 µM (EKVX): 69.9%; inhibition at 10 µM (MALME-3M): 33.1%
Brc1ccccc1/C=N/Nc1nc(N/N=C/c2ccccc2Br)nc(N2CCCCC2)n1 [compound 7b, 2,4-Bis[(E)-2-[(2-Bromophenyl)methylidene]hydrazin-1-yl]-6-(piperidin-1-yl)-1,3,5-triazine] | -1.34 | -0.46 | 1.14 | 6.02 | -4.12 | 4.71 | 3.76 | -6.1 | 0.96 | 0.1 | -2.25 | 0.53 | 2 | 3.19 | -16.5 | 10.9 | -1.21 | -7.41 | 3.65 | 5.07 | inhibition at 10 µM (SK-OV-3): -0.76%; inhibition at 10 µM (U251): -2.15%; inhibition at 10 µM (HS 578T): -5.25%; inhibition at 10 µM (RPMI-8226): -0.33%; inhibition at 10 µM (NCI/ADR-RES): -2.41%; inhibition at 10 µM (EKVX): 4.52%; inhibition at 10 µM (MALME-3M): -6.25%
